{"source": "patent US20250090629A1", "about": "“ALLEVIATING DRUG NEPHROTOXICITY” (The Trustees of Indiana University, priority 2021, published 2025)", "key": {"[1]": {"test_system": "uninephrectomy chronic kidney disease model in Munich Wister Fromter rats", "assay": "Gentamicin induced nephrotoxicity in uninephrectomy chronic kidney disease rat model, with or without RAP", "settings": "for Urinary protein: CKD pretreatment baseline 221±40; for Serum Cr: daily gentamicin 100 mg/kg intraperitoneal with RAP 40 mg/kg intravenous, p<0.01 vs without RAP", "protocol": "Rats with a Chronic Kidney Disease (CKD) background were given either saline or 40 mg/kg RAP. […] Serum creatinine, an indicator of renal function, was measured in both rat populations at day 0, 3, 4, 5, and 6."}, "[2]": {"test_system": "fluid phase and Megalin mediated clathrin mediated endocytosis in S1 and non-S1 proximal tubule segments", "assay": "Intra-vital 2-photon quantification of proximal tubule uptake of fluorescent endocytic markers after RAP or vehicle", "format": "in vivo, rat"}, "[3]": {"test_system": "fluid phase and Megalin mediated clathrin mediated endocytosis in S1 and non-S1 proximal tubule segments", "assay": "Intra-vital 2-photon quantification of proximal tubule uptake of fluorescent endocytic markers after RAP or vehicle", "format": "in vivo, rat", "protocol": "Rats were given either RAP or saline vehicle followed by a bolus containing a fluid phase endocytic marker (10,000 MW Cascade Blue Dextra, CB-dex) and a receptor mediated uptake marker (Texas Red Rat Serum Albumin, Rat Albumin). […] The results of this experiment are illustrated in FIG. 3. […] Ten minutes later, a bolus of Texas Red rat serum albumin (TR-RSA) and 10 kDa Cascade Blue dextran was given. […] Images collected from these studies at approximately 15, 30, and 60 minutes post initial infusion were quantified for TR-RSA and 10 kDa dextran uptake in either vehicle or RAP treated rats, in both S1 and non-S1 proximal tubule segments. Values were reported as normalized fluorescence, with the values normalized to the highest average value in the study group. […] The differences between vehicle and RAP treated were significant at all three time points studied and in both the S1 and non-S1 proximal tubule segments. […] The lower glomerular sieving coefficient of the RSA results in less RSA filtration and this a slower, protracted uptake that appears linear over time, with the S1 segment having the greatest accumulation.", "remark": "listed apart in the source"}, "[4]": {"settings": "normal rats, over 60 minutes, RAP 40 mg/kg intravenous"}, "[5]": {"settings": "RAP vs saline vehicle, 15', 30', 60' post bolus, S1 and non-S1 segments, FIG. 3"}, "[6]": {"settings": "S1 segment, 60 minutes post initial bolus infusion, RAP 40 mg/Kg, FIG. 4B"}}, "data": [{"substance": "gentamicin [reference compound]", "values": [{"measurement": "Urinary protein", "setting": "[1]; gentamicin without RAP", "value": "2,512 mg/ml/100 μm wt"}]}, {"substance": "RAP: 39 kD protein, molecular chaperone for LDL receptor-related proteins such as Megalin; endocytosis inhibitor; SEQ ID NO 1-3 (human, rat, mouse)", "values": [{"measurement": "Texas Red Gentamicin accumulation (average fluorescence intensity)", "setting": "[2]; RAP 40 mg/kg vs saline vehicle, then single bolus of Texas Red Gentamicin, S1 and non-S1 proximal tubule segments, FIG. 2", "value": "Decreased"}, {"measurement": "Reduction of S1 proximal tubule gentamicin uptake", "setting": "[2]; [4]", "value": 62, "unit": "%"}, {"measurement": "Serum creatinine (indicator of renal function), change over time", "setting": "[1]; CKD rats, RAP 40 mg/kg plus gentamicin 100 mg/kg intraperitoneal daily for five days, day 0, 3, 4, 5, 6, FIG. 1", "value": "did not exhibit the same increase in serum creatinine"}, {"measurement": "Serum Cr", "setting": "[1]; day 5", "value": "1.4 ± 0.5", "unit": "mg/dL"}, {"measurement": "Serum Cr", "setting": "[1]; day 6", "value": "1.5 ± 0.5", "unit": "mg/dL"}, {"measurement": "24-hour creatinine clearance", "setting": "[1]; gentamicin with RAP, CKD pretreatment baseline 0.91=0.22 ml/min", "value": "0.49 ± 0.16", "unit": "mL/min"}, {"measurement": "Urinary protein", "setting": "[1]; gentamicin with RAP", "value": 488, "unit": "mg/ml/100 μm wt"}, {"measurement": "10,000 MW Cascade Blue Dextran (CB-dex) proximal tubule uptake and accumulation", "setting": "[3]; [5]", "value": "reduction"}, {"measurement": "Texas Red Rat Serum Albumin proximal tubule uptake and accumulation", "setting": "[3]; [5]", "value": "reduction"}, {"measurement": "10 kDa dextran accumulation in single plane images", "setting": "[3]; [6]", "value": "only faint accumulation"}, {"measurement": "TR-RSA uptake in single plane images", "setting": "[3]; [6]", "value": "virtually no uptake"}, {"measurement": "Reduction of 10 kDa Cascade Blue dextran uptake vs vehicle", "setting": "[3]; S1 segment, RAP 40 mg/Kg, FIG. 4C", "value": "over 5 fold"}, {"measurement": "RSA uptake (normalized fluorescence) compared to vehicle treated rats", "setting": "[3]; about 15, 30 and 60 minutes, both S1 and non-S1 proximal tubule segments, FIG. 4E, 4F", "value": "significantly reduced"}, {"measurement": "Reduction of 10 kDa Cascade Blue dextran uptake vs vehicle", "setting": "[3]; non-S1 proximal tubule segments, RAP 40 mg/Kg, FIG. 4D", "value": 2, "unit": "fold"}, {"measurement": "Reversibility of the reduction of S1 proximal tubule uptake", "setting": "[3]; normal rats", "value": "rapid fully reversible"}, {"measurement": "Reduction of S1 proximal tubule albumin uptake", "setting": "[3]; [4]", "value": 80, "unit": "%"}, {"measurement": "Reduction of S1 proximal tubule dextran uptake", "setting": "[3]; [4]", "value": 67, "unit": "%"}, {"measurement": "Nature of the inhibition of endocytosis", "setting": "[3]; without causing lasting effects on kidney function", "value": "temporary and reversible"}]}]}
